# Data reported in the METLIN SMRT retention time set (Domingo-Almenara et al. 2019).
# Test: gradient 5% acetonitrile 3 min, to 50% in 2 min, to 85% in 15 min, held 3 min, 100 µL/min
# Settings: column: Zorbax Extend-C18 2.1 x 50 mm; eluents: water / acetonitrile, 0.1% formic acid
# Outline: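 Data were gathered over 3 months by HPLC coupled to a quadrupole time-of-flight mass spectrometer, operated in positive and negative ionization mode. Mixtures of ~100 pure standards ran on a Zorbax Extend-C18 column (2.1 × 50 mm, 1.8 μm) at 100 μL/min, with water and acetonitrile each containing 0.1% formic acid and dead and dwell volumes of 40 μL and 900 μL. Retention time was read from adduct peaks picked by computer and checked manually.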
row,Compound,RP-LC retention time
1,CCn1cc(CCN2CCN(S(=O)(=O)c3ccc4c(c3)CCC4)CC2)c2cccnc21,702 s
2,CCn1nccc1-c1cccc(-c2noc(-c3cccc(OC)c3OC)n2)c1,1170 s
3,CCOC(=O)c1c(C)oc2nc(C)nc(NCc3ccccn3)c12,683 s
4,COCCNS(=O)(=O)c1cc(-c2nc(C)cs2)n(CC(=O)N2CCCCC2)c1,755 s
5,CCCn1c(=O)sc2cc(S(=O)(=O)N3CCC(C(=O)N4CCOCC4)CC3)ccc21,770 s
6,Cc1ccc(C)c(CNC(=O)Cc2csc3nc(-c4ccc(C)c(C)c4)cn23)c1,930 s
7,Cc1nn(-c2ccccc2)c2c1C(c1ccc([N+](=O)[O-])cc1)C(C#N)=C(N)O2 (centres undefined),760 s
8,CCn1nc(C)n2cc(S(=O)(=O)NCc3cc(F)cc(F)c3)cc2c1=O,886 s
9,CCc1nnc(-c2ccc3ccn(CC(=O)NCCc4ccc(OC)c(OC)c4)c3c2)o1,760 s
10,COc1ccccc1-c1noc(Cn2c(=O)n(-c3cccc(F)c3)c(=O)c3sccc32)n1,880 s
11,CCCCN(C)C(=O)CC1CCN(c2ccnc(NC)n2)CC1,577 s
12,COc1ccc(NC(=O)CSc2nnc3c4cc(-c5ccc(Cl)cc5)nn4ccn23)c(OC)c1,951 s
13,CCCCOc1ccc(-c2ccc(=O)n(Cc3nc(-c4ccccc4Br)no3)n2)cc1,1260 s
14,Cc1cc(C)cc(NC(=O)c2cc3sccc3n2C)c1,1090 s
15,COC(=O)c1c(C)[nH]c(C(=O)N2CCC(CC(=O)NCC3CCCO3)CC2)c1C (centres undefined),632 s
16,CCN(CC)CCNC(=O)CCc1c(-c2ccc(Cl)cc2)nc2ccccn12,558 s
17,Clc1nc2nc3n(c2nc1Cl)CCC3,761 s
18,COC(=O)C1=CN(C2CC2)c2cc(N3CCN(c4ccc(C(C)=O)cc4)CC3)c(F)cc2S1(=O)=O,906 s
19,COc1cccc(C2Cn3nnc(-c4nc(-c5ccc(C(C)(C)C)cc5)no4)c3CO2)c1 (centres undefined),1450 s
20,Cn1c(=O)n(C)c2cc(S(=O)(=O)NCc3ccco3)ccc21,636 s

row,Compound,RP-LC retention time
1,COc1ccc(OCC(O)CN(CCO)CC(O)Cn2ccc3ccccc32)cc1 (centres undefined),591 s
2,Cc1ccc(Nc2nc(C)cc(N3CCN(S(=O)(=O)c4cc(F)ccc4F)CC3)n2)cc1,797 s
3,COc1ccccc1-c1noc(CN2C(=O)COc3ccccc32)n1,880 s
4,COc1ccc(N2CC(c3nc(-c4ccc5c(c4)OCO5)no3)CC2=O)cc1Cl (centres undefined),966 s
5,CCCN1C(=O)c2cc(S(=O)(=O)NC(C)C)ccc2Oc2cccnc21,960 s
6,COc1ccc(C(O)CN2CCN(c3ccc(F)cc3)CC2)cc1OC (centres undefined),636 s
7,O=c1n(Cc2cccc(Cl)c2)nc2c(S(=O)(=O)N3CCc4ccccc4C3)cccn12,1010 s
8,Cc1noc(C)c1CC(=O)N1CCCn2ccnc2C1C(C)C (centres undefined),632 s
9,NC(=O)CCC(C(=O)O)N1C(=O)c2ccc(O)cc2C1=O (centres undefined),620 s
10,COC(=O)C1=CN(c2ccc(OC)c(Cl)c2)c2ccc(F)cc2S1(=O)=O,886 s
11,Cc1cc(N(C)C)n2nc(CN3CCN(c4cccc(Cl)c4)CC3)nc2n1,635 s
12,COc1ccc(-c2ncc3c(n2)CCN(C(=O)Nc2ccc(C)c(F)c2)C3)cc1,996 s
13,CC(C)NC(=O)Cc1nnc2cc(-c3nc(C4CC4)no3)ccn12,777 s
14,O=C(CCc1ccc2cc[nH]c2c1)N1CCN(c2ccc(Cl)cc2)CC1,996 s
15,Cc1ccc(S(=O)(=O)N2CCCC2)cc1-c1nnc(-c2ccc(F)cc2)o1,1040 s
16,Cc1nn(-c2ccc(N3CCCCC3)nn2)c(C)c1CCC(=O)NCCCc1ccco1,665 s
17,Cc1ccccc1OCc1ccc(-c2nc(C#N)c(NCCCN(C)C)o2)o1,727 s
18,CSc1ccc(-c2noc(CN3C(=O)COc4cc(Cl)ccc43)n2)cc1,1170 s
19,COc1ccc(/C=C\c2onc(C)c2NC(C)=O)cc1S(=O)(=O)N1CCN(c2ncccn2)CC1,738 s
20,CCc1ccc(N2CC(c3noc(-c4cc(OC)cc(OC)c4)n3)CC2=O)cc1 (centres undefined),1100 s

# The remaining lines, values ahead:
row,RP-LC retention time,Compound
1,623 s,CC(=O)Nc1cc(C(=O)NCc2ccccc2Br)c2ccc(C)nc2c1
2,788 s,CCCCOc1ccc(NC(=O)c2cc(=O)c3ccc(C)c(C)c3o2)c2cccnc12
3,910 s,Cc1ccc2[nH]cc(CCN3CC(C(=O)Nc4ccc(C)c(C)c4)CC3=O)c2c1 (centres undefined)
4,613 s,NS(=O)(=O)c1ccc(CCNC(=O)Cn2nc3c(N4CCOCC4)nccn3c2=O)cc1
5,774 s,COc1ccc(-c2nnc(-c3ccccc3)o2)cc1S(=O)(=O)N1CCC(C(=O)O)CC1
6,683 s,O=C(NCCCn1nc(-c2ccc(F)cc2)ccc1=O)c1cccc(-n2cnnn2)c1
7,878 s,CCc1ccc(NC(=O)N2CCCC(C)(C(=O)NCc3ccccc3)C2)cc1 (centres undefined)
8,882 s,COc1ccc(CN2CC3(CCN(S(=O)(=O)Cc4ccccc4)CC3)C2=O)cc1
9,566 s,O=C(N[C@@H]1CN(c2ncccn2)C[C@H]1CO)c1ccco1
10,696 s,O=C(Nc1ccc(F)cc1)C1CCN(c2cc(N3CCCCC3)ncn2)CC1
11,620 s,CC1CCCN(CCCNC(=O)c2nc(CCS(=O)(=O)c3ccc(F)cc3)no2)C1 (centres undefined)
12,1120 s,CCCCn1cnc2c(-c3ccccc3)cn(CC(=O)Nc3ccc(Cl)cc3)c2c1=O
13,705 s,COc1ccccc1CNC(=O)Cn1nc2cc(-c3ccccc3)nc(C)n2c1=O
14,1070 s,Cc1cc2nn(CC(=O)Nc3cc(F)cc(F)c3)c(=O)n2c(Nc2ccc(F)c(C)c2)n1
15,1030 s,O=C(Cn1cccc1-c1nc(-c2ccccc2)cs1)NCc1ccco1
16,653 s,Cc1cc(N2CCN([C@@H]3CN[C@H](C(=O)N4CCSC4)C3)CC2)n(-c2ccccc2)n1
17,911 s,CC1(C)C(=O)N(CC(=O)N2CCN(c3ccc(F)cc3)CC2)c2ccccc21
18,995 s,CC(C)(C)NC(=O)NC1CCN(c2nc3cccnc3n(Cc3ccccc3)c2=O)CC1
19,666 s,COCC(=O)NC1CCN(c2ccc(C)cc2)C1=O (centres undefined)
20,731 s,Cc1ccc2c(=O)c(C(=O)N3CCCCC3)cn(CC(=O)NC3CCCCC3)c2n1
21,748 s,COCCOCc1nc(C2CCCN2S(=O)(=O)Cc2ccccc2)no1 (centres undefined)
22,631 s,O=C1Nc2ccccc2NC12CCOCC2
23,762 s,O=C(CCC1CCCC1)Nc1cccc(-c2nnc3n2CCCC3)c1
24,741 s,CCNC(=O)C1CCCN(c2nc3ncn(CC(=O)Nc4cc(Cl)ccc4C)c(=O)c3s2)C1 (centres undefined)
25,764 s,CNC(=O)c1ccccc1Nc1cc(Nc2ccc(N3CCOCC3)cc2OC)ncc1C(F)(F)F

row,RP-LC retention time,Compound
1,555 s,COc1ccccc1-c1[nH]ncc1CN1CC(F)(F)C[C@H]1CN1CCOCC1
2,857 s,Cc1ccc(-n2c(=O)n(C)c(=O)c3cc(C(=O)Nc4ccccc4C(N)=O)cnc32)cc1
3,669 s,CNC(=O)C1CCCN(c2nc3ncn(CC(=O)Nc4cccc(SC)c4)c(=O)c3s2)C1 (centres undefined)
4,627 s,CN(C(=O)CN1CCCn2nc(C(=O)O)cc2C1=O)c1ccccc1
5,648 s,CCCNC(=O)N1CCC(c2noc(-c3ccccn3)n2)C1 (centres undefined)
6,680 s,CCCn1c2ccccc2c2cnn(CC(=O)NCCN3CCCCC3C)c(=O)c21 (centres undefined)
7,958 s,Cc1nn(-c2ccccc2)c(C)c1S(=O)(=O)N1CCC(C(=O)Nc2cccc(C#N)c2)CC1
8,751 s,CC(=O)N1CCc2cc(N3CC(C(=O)Nc4ccc(F)c(Cl)c4)CC3=O)ccc21 (centres undefined)
9,659 s,O=C(Nc1ccc(F)cc1)Nc1ccc2nncn2c1
10,874 s,CC(=O)c1cccc(NC(=O)c2noc3c2CCCC3)c1
11,545 s,CCOC(=O)C1=C(CN2CCCCC2)NC(=O)NC1c1cccs1 (centres undefined)
12,703 s,CCCNC(=O)C1CCCN(c2nc3ncn(CC(=O)Nc4cc(C)ccc4C)c(=O)c3s2)C1 (centres undefined)
13,865 s,O=C(CCCc1nc(-c2cccnc2)no1)Nc1nc(-c2ccccc2)cs1
14,1060 s,Cc1oc(C(C)C)nc1C(=O)NCc1ccc(C(F)(F)F)cc1
15,829 s,CC(C)CCNC(=O)C1CCN(Cc2cc3ccccc3n2Cc2ccccc2Cl)CC1
16,844 s,O=C(NCCc1ccc(N2CCCC2)cc1)C(=O)Nc1ccc2c(c1)OCCO2
17,691 s,CC(C)NC(=O)c1ccc2c(c1)N(S(C)(=O)=O)CC2
18,649 s,O=C(CCC1CCCC1)NC1CCN(c2ccc(=O)[nH]n2)C1 (centres undefined)
19,910 s,CCC1Oc2ccc(S(=O)(=O)N3CCC(C(=O)Nc4cccc(F)c4)CC3)cc2NC1=O (centres undefined)
20,742 s,CC(C)CC(=O)NC1CCN(c2ccc(F)cc2)C1=O (centres undefined)
21,630 s,Cc1ccccc1NC(=O)Cn1nc2n(c1=O)CCCC2
22,759 s,COc1ccc(-c2nnc(-c3ccccc3)o2)cc1S(=O)(=O)NC(C)(C)CO
23,595 s,O=C1CC(NC(=O)Nc2ccccc2C(F)(F)F)CN1 (centres undefined)
24,726 s,Cc1cccc(NS(=O)(=O)c2c[nH]c3ncccc23)c1
